Test results published in BindingDB's records for doi:10.1124/jpet.102.038075 (Nih, 2002).
“And” between values parts separate entries of the source, which are not always exact repeats. Equal values may be shown once. Bridge positions count the residues as written; N and C are the ends. Square brackets hold non-standard residues; d marks the D form. Peptide text beside a SMILES is read from it. Nle = CCCC[C@H](N)C(=O)O

Experiments:
[1] = biological target: T1, Vasoactive intestinal polypeptide receptor 1 (Homo sapiens, UniProt P32241)
T1 sequence (P32241 whole entry): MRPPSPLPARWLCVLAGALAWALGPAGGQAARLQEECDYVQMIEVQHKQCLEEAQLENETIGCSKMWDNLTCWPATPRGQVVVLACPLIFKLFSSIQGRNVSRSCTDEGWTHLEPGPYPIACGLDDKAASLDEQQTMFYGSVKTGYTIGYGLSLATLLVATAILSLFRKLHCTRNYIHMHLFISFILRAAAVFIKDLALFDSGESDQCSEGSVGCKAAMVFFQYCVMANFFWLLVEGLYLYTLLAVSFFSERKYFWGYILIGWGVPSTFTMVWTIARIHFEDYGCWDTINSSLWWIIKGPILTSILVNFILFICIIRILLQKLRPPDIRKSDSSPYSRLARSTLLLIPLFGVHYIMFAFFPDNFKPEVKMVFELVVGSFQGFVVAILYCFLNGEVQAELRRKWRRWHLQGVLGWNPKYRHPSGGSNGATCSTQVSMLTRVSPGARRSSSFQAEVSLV

[2] = biological target: T2, Vasoactive intestinal polypeptide receptor 2 (Homo sapiens, UniProt P41587)
T2 sequence (P41587 whole entry): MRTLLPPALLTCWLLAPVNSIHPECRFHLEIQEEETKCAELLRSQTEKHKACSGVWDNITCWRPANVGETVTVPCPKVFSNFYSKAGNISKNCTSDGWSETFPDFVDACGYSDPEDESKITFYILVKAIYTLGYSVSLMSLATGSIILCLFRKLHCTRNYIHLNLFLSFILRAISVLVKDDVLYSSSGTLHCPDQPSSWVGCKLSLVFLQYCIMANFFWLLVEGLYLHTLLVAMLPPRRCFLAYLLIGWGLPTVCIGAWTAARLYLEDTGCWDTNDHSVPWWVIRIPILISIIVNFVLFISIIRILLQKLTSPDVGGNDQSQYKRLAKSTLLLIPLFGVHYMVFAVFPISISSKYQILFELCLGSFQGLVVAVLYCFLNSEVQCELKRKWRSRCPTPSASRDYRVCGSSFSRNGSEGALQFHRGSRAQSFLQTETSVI

[3] = biological target: T3, Vasoactive intestinal polypeptide receptor 2 (Rattus norvegicus, UniProt P35000)
T3 sequence (P35000 whole entry): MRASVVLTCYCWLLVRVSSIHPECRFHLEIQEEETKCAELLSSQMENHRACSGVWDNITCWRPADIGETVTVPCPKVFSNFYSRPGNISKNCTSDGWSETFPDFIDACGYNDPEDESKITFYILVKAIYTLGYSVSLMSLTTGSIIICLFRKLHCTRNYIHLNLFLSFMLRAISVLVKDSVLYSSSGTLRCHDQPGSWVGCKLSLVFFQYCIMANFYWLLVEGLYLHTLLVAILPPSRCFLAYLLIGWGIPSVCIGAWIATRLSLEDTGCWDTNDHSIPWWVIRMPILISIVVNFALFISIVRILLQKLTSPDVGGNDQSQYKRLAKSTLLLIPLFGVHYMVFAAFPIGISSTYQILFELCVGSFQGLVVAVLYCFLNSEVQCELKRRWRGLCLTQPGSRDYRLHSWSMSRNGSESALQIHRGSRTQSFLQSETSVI

Row | Ki [1] | Ki [2] | Ki [3] | Compound
1 | 1200 nM and 1020 nM | 2.1 nM and 15.9 nM and 3.9 nM | – | CCCC[C@H](NC(=O)[C@H](CCC(N)=O)NC(=O)[C@H](CCCCN)NC(=O)[C@H](CCCNC(=N)N)NC(=O)[C@H](CC(C)C)NC(=O)[C@H](CCCCN)NC(=O)[C@@H](NC(=O)[C@H](Cc1ccc(O)cc1)NC(=O)[C@H](CC(N)=O)NC(=O)[C@H](CCC(=O)O)NC(=O)[C@@H](NC(=O)[C@H](Cc1ccccc1)NC(=O)[C@@H](NC(=O)[C@H](C)NC(=O)[C@H](CC(=O)O)NC(=O)[C@H](CO)NC(=O)[C@H](Cc1c[nH]cn1)NC(C)=O)C(C)C)[C@@H](C)O)[C@@H](C)O)C(=O)N[C@@H](C)C(=O)N[C@@H](C)C(=O)N[C@@H](CCCCN)C(=O)N[C@H]1CCCCNC(=O)C[C@@H](C(=O)N[C@@H](CC(C)C)C(=O)N[C@@H](CCCCN)C(=O)N[C@@H](CCCCN)C(=O)NCC(=O)NCC(=O)N[C@H](C(N)=O)[C@@H](C)O)NC(=O)[C@H](CC(N)=O)NC(=O)[C@H](CC(C)C)NC(=O)[C@H](Cc2ccc(O)cc2)NC1=O [Ac-L-His-L-Ser-L-Asp-L-Ala-L-Val-L-Phe-L-Thr-L-Glu-L-Asn-L-Tyr-L-Thr-L-Lys-L-Leu-L-Arg-L-Lys-L-Gln-L-Nle-L-Ala-L-Ala-L-Lys-L-Lys(1)-L-Tyr-L-Leu-L-Asn-L-Asp(1)-L-Leu-L-Lys-L-Lys-Gly-Gly-L-Thr-NH2] (Ac-HSDAVFTENYTKLRKQ[Nle]AAKKYLNDLKKGGT-NH2; lactam 21-25)
2 | – | 1700 nM and 1120 nM and 3000 nM | 138 nM and 631 nM | CC[C@H](C)[C@H](NC(=O)[C@H](CO)NC(=O)[C@H](CC(N)=O)NC(=O)[C@H](CC(C)C)NC(=O)[C@H](Cc1ccc(O)cc1)NC(=O)[C@H](CCCCN)NC(=O)[C@H](CCCCN)NC(=O)[C@@H](NC(=O)[C@H](C)NC(=O)[C@H](CCSC)NC(=O)[C@H](CCC(N)=O)NC(=O)[C@H](CCCCN)NC(=O)[C@H](CCCN=C(N)N)NC(=O)[C@H](CC(C)C)NC(=O)[C@H](CCCN=C(N)N)NC(=O)[C@@H](NC(=O)[C@H](Cc1ccc(O)cc1)NC(=O)[C@H](CC(N)=O)NC(=O)[C@H](CC(=O)O)NC(=O)[C@H](C)NC(=O)[C@H](Cc1ccccc1)NC(=O)[C@@H](NC(=O)[C@H](C)NC(=O)[C@H](CC(=O)O)NC(=O)[C@H](CO)NC(=O)[C@@H](N)Cc1cnc[nH]1)C(C)C)[C@@H](C)O)C(C)C)C(=O)N[C@@H](CC(C)C)C(=O)N[C@@H](CC(N)=O)C(N)=O [VIP Ala7]
3 | – | 209 nM and 251 nM and 559 nM | 75.7 nM and 479 nM | H-ASDAVFTDNYTRLRKQMAVKKYLNSILN-NH2 [VIP Ala1]
4 | – | 3.4 nM and 3.5 nM and 2.1 nM | – | H-HADAVFTDNYTRLRKQMAVKKYLNSILN-NH2 [VIP Ala2]
5 | – | 977 nM and 1150 nM and 2420 nM | 138 nM and 546 nM | H-HSAAVFTDNYTRLRKQMAVKKYLNSILN-NH2 [VIP Ala3]
6 | – | 12.2 nM and 48.1 nM and 120 nM | 13.2 nM and 23 nM | H-HSDAAFTDNYTRLRKQMAVKKYLNSILN-NH2 [VIP Ala5]
7 | – | 4.4 nM and 2.7 nM and 13.3 nM | – | H-HSDAVFTANYTRLRKQMAVKKYLNSILN-NH2 [VIP Ala8]
8 | – | 4.3 nM and 3.2 nM and 6 nM | – | H-HSDAVFTDAYTRLRKQMAVKKYLNSILN-NH2 [VIP Ala9]
9 | – | 3000 nM | 724 nM and 2660 nM | H-HSDAVFTDNATRLRKQMAVKKYLNSILN-NH2 [VIP Ala10]
10 | – | 331 nM and 676 nM and 288 nM | 25.1 nM and 251 nM | H-HSDAVFTDNYTALRKQMAVKKYLNSILN-NH2 [VIP Ala12]
11 | – | 48.9 nM and 81.3 nM and 52.3 nM | – | H-HSDAVFTDNYTRARKQMAVKKYLNSILN-NH2 [VIP Ala13]
12 | – | 47.9 nM and 110 nM and 166 nM | – | H-HSDAVFTDNYTRLAKQMAVKKYLNSILN-NH2 [VIP Ala14]
13 | – | 19.1 nM and 40.7 nM and 38.4 nM | 1.9 nM and 16.6 nM | H-HSDAVFTDNYTRLRAQMAVKKYLNSILN-NH2 [VIP Ala15]
14 | – | – | 2.3 nM and 5 nM | H-HSDAVFTDNYTRLRKQAAVKKYLNSILN-NH2 [VIP Ala17]
15 | – | 2.4 nM and 2.6 nM and 5 nM | 0.43 nM and 3.4 nM | H-HSDAVFTDNYTRLRKQMAAKKYLNSILN-NH2 [VIP Ala19]
16 | – | 10 nM and 12.6 nM and 21.9 nM | – | H-HSDAVFTDNYTRLRKQMAVAKYLNSILN-NH2 [VIP Ala20]
17 | – | 8.1 nM and 17 nM and 12.6 nM | 1.3 nM and 12.4 nM | H-HSDAVFTDNYTRLRKQMAVKAYLNSILN-NH2 [VIP Ala21]
18 | – | 3000 nM | 759 nM and 3000 nM | H-HSDAVFTDNYTRLRKQMAVKKALNSILN-NH2 [VIP Ala22]
19 | – | 1700 nM and 2820 nM and 2710 nM | 110 nM and 972 nM | H-HSDAVFTDNYTRLRKQMAVKKYANSILN-NH2 [VIP Ala23]
20 | – | 4.1 nM and 14.1 nM and 18.6 nM | 0.4 nM and 3.2 nM | H-HSDAVFTDNYTRLRKQMAVKKYLASILN-NH2 [VIP Ala24]
21 | – | 9.1 nM and 11.8 nM and 15.2 nM and 50.1 nM and 49 nM and 27.9 nM | – | H-HSDAVFTDNYTRLRKQMAVKKYLNSALN-NH2 [VIP Ala26]
22 | – | 19.5 nM and 79.4 nM and 89.1 nM | – | H-HSDAVFTDNYTRLRKQMAVKKYLNSIAN-NH2 [VIP Ala27]
23 | – | 34.7 nM and 21 nM and 27.2 nM | – | H-HSDAVFTDNYTRLRKQMAVKKYLNSILA-NH2 [VIP Ala28]
24 | 1.7 nM and 7.7 nM and 8.9 nM | 3000 nM | – | H-HSDAVFTNSYRKVLKRLSARKLLQDIL-NH2 [NSC_0]
